pIC50: −log10 of the molar value. “Also recorded” adds a separate entry of the source.
Columns and labels:
[1] = Mathur et al. 2008; cited from earlier work
[2] = single dose subcutaneous, highest dose tested; Iijima et al. 2010; cited from earlier work
Sapap3 knock-out mice = assay: Novelty Phobia Test in Sapap3 knock-out mice; format: in vivo, mouse; conditions: for novelty phobia (number of touch bouts), dose dependence: single i.p. administration
Description: (§1) Animals. Shank3 knockout mice and Sapap3 knockout mice were purchased from Duke University. The animals were raised in a SPF environment according to AALAC guidelines. The breeding conditions and genotyping method were the same as described in J. M. Welch et al., Nature 2007; 448(7156):894-900, and in J. Peca et al., Nature 2011;472(7344):437-442. Homozygous knockout mice of 4 to 8 weeks of age were used in behavioral assays.
The test compounds were dissolved in a small volume of DMSO and diluted saline and administered intraperitoneally (i.p.) to 4 to 8 week old mice. […]
The behavioral testing apparatus was a rectangular black Plexiglas box, with no top or bottom (50 cm long, 26 cm wide and 15 cm tall). The chambers of the testing apparatus were cleaned and fresh paper chip bedding was added between tests. Behavioral tests were conducted between 10:00 am and 1:00 pm in dim light. Mice were brought to the experiment room in their home cages and administered intraperitoneally with drugs or vehicle in a volume of 10 ml/kg. […] After this habituation period, a novel object (e.g., a toy ball of 3 cm in diameter with spikes) was introduced to the center of the chamber for 5 min. For the entire 15 min that the mouse spent in the chamber, video was recorded and analyzed with AnyMaze software (purchased from Stoelting Co.). The total distance traveled during the entire 15 min and the bouts that the mice touched the novel object during the last 5 min were measured. Statistical significance between two groups was determined by t test. In all statistical measures, the criterion for significance was set at p<0.05.

human NR1/NR2A [3] = biological target: T1, human NR1/NR2A (Homo sapiens, UniProt Q05586+Q12879); assay: NR2A antagonist activity, Fluo-4 calcium influx assay in HEK293 cells; format: cell-based; conditions: glutamate 100 μM and glycine 50 μM, Fluo-4 fluorescence, read-out: hNR2A IC50
T1 construct: expressed in transfected cells
Excerpt: HEK293 cell lines stably expressing cloned human NR1/NR2B and NR1/NR2A, respectively, were established according to standard previously described methods (Hansen et al., Comb. Chem High Throughput Screen. 11:304, 2008). Activation of the NR2A or NR2B subtype of NMDA receptor with glutamate as an agonist and glycine co-agonist on these cells results in calcium influx, which can be monitored with fluorescent indicator Fluo-4. A cell based assay has been implemented to evaluate the effect of a compound on NR2A and NR2B receptors by measuring the fluorescent changes (Hansen et al., Comb. Chem High Throughput Screen. 11:304, 2008).
HEK293 cells stably expressing NR2A or NR2B receptors were cultured at 37° C. in a humidified CO2 incubator in DMEM supplemented with 10% fetal bovine serum (FBS) (Hyclone), 10 μM MK801 (Sigma-Aldrich) and 50 μM AP-5 (Tocris). For experiments, the cells were seeded onto poly-D-lysine-coated 96-well black plates with clear bottom (Corning) at a density of ˜50,000 cells/well. After overnight culture, the growth medium was removed from the wells and the cells were incubated at 37° C. for 60 min in Hanks buffer containing 4 μM fluo-4-AM (Invitrogen) and 0.1% bovine serum albumin (BSA). After dye-loading, the cells were washed three times with Hanks buffer and incubated for 10 min at room temperature with various concentrations of test compounds prepared in Hanks buffer with 0.1% BSA. The cell plates were placed onto FDSS μCell fluorescence reader (Hamamatsu). After 20 sec reading of background fluorescence, agonist glutamate at final 100 μM and co-agonist glycine at final 50 μM were added to the cells to activate the receptor, and the resulting fluorescence changes were recorded and quantified. Based on the changes in fluorescence intensity, the pharmacological effect of test compounds were analyzed and the IC50 values derived from a non-linear least squares fitting of the concentration-dependent response to a standard logistic equation using Prism (Graphpad, Inc):
Amplitude=Max Amplitude/(1+(IC50/[antagonist])°).

human NR1/NR2B = biological target: T2, human NR1/NR2B (Homo sapiens, UniProt Q05586+Q13224); assay: NR2B antagonist activity, Fluo-4 calcium influx assay in HEK293 cells; format: cell-based; conditions: glutamate 100 μM and glycine 50 μM, Fluo-4 fluorescence, read-out: hNR2B IC50
T2 construct: expressed in transfected cells
Description: HEK293 cell lines stably expressing cloned human NR1/NR2B and NR1/NR2A, respectively, were established according to standard previously described methods (Hansen et al., Comb. Chem High Throughput Screen. 11:304, 2008). Activation of the NR2A or NR2B subtype of NMDA receptor with glutamate as an agonist and glycine co-agonist on these cells results in calcium influx, which can be monitored with fluorescent indicator Fluo-4.
For experiments, the cells were seeded onto poly-D-lysine-coated 96-well black plates with clear bottom (Corning) at a density of ˜50,000 cells/well. After overnight culture, the growth medium was removed from the wells and the cells were incubated at 37° C. for 60 min in Hanks buffer containing 4 μM fluo-4-AM (Invitrogen) and 0.1% bovine serum albumin (BSA). After dye-loading, the cells were washed three times with Hanks buffer and incubated for 10 min at room temperature with various concentrations of test compounds prepared in Hanks buffer with 0.1% BSA. The cell plates were placed onto FDSS μCell fluorescence reader (Hamamatsu). After 20 sec reading of background fluorescence, agonist glutamate at final 100 μM and co-agonist glycine at final 50 μM were added to the cells to activate the receptor, and the resulting fluorescence changes were recorded and quantified.

human NR1/NR2A [4] = biological target: T3, human NR1/NR2A (Homo sapiens, UniProt Q12879); conditions: from L. Mony et al., Br. J. Pharmacol. 2009; read-out: hNR2A IC50; cited from earlier work
T3 construct: expressed in transfected cells

Shank3 knock-out mice = assay: Novelty Phobia Test in Shank3 knock-out mice; format: in vivo, mouse; conditions: for novelty phobia (number of touch bouts): vs vehicle, p<0.05
Description: as §1
The test compounds were dissolved in a small volume of DMSO and diluted saline and administered intraperitoneally (i.p.) to 4 to 8 week old mice. About 30-60 minutes after dosing, the mice were subjected to a behavioral test as described below.
The behavioral testing apparatus was a rectangular black Plexiglas box, with no top or bottom (50 cm long, 26 cm wide and 15 cm tall). The chambers of the testing apparatus were cleaned and fresh paper chip bedding was added between tests. Behavioral tests were conducted between 10:00 am and 1:00 pm in dim light. Mice were brought to the experiment room in their home cages and administered intraperitoneally with drugs or vehicle in a volume of 10 ml/kg. About 30 to 60 min after drug administration, the mice were placed into the chamber and allowed to free play for 10 min. After this habituation period, a novel object (e.g., a toy ball of 3 cm in diameter with spikes) was introduced to the center of the chamber for 5 min. For the entire 15 min that the mouse spent in the chamber, video was recorded and analyzed with AnyMaze software (purchased from Stoelting Co.). The total distance traveled during the entire 15 min and the bouts that the mice touched the novel object during the last 5 min were measured. Statistical significance between two groups was determined by t test. In all statistical measures, the criterion for significance was set at p<0.05.

wild-type mice = assay: Elevated Plus Maze; format: in vivo, mouse; conditions: for time spent in the open arms: vs vehicle
Excerpt: The Elevated Plus Maze, which detects anxiolytic activity, follows that described by S. L. Handley and S. Mithani Naunyn. Schmied. Arch. Pharmacol. 1984, 327, 1-5. Rodents avoid open spaces (the open arms of an elevated plus-maze). Anxiolytics increase exploratory activity in the open arms, as indicated by increased time spent on the open arms and/or by increased % open-arm entries. The maze consists of 4 arms of equal length and width (14×5 cm) arranged in the form of a plus sign (+). Two opposite arms are enclosed by 12 cm high walls (closed arms). The 2 other arms have no walls (open arms). The maze is raised approximately 60 cm above the floor. A mouse was placed in the center of the plus-maze and left to explore for 5 minutes. The number of entries into the open and closed arms and the time spent on the open arms were recorded. The percentage of open arm entries (open arm entries/total arm entries×100) was calculated. Ten mice were studied per group. The test was performed blind (test substances versus vehicle). Data with the test substances were analyzed by comparing treated groups (7 groups except for the reference substance) with vehicle control using one-way ANOVA followed by post-hoc Dunnett's tests. Data with the reference substance were analyzed using unpaired Student's t tests.

wild type mice = assay: Marble Burying Test; format: in vivo, mouse; conditions: for number of marbles buried: vs vehicle, p<0.001
Description: The Marble Burying Test was conducted as previously described by C. L. Broekkamp et al., Eur. J. Pharmacol. 1986, 126, 223-229. Mice exposed to novel object (marbles) will bury them in the sawdust floor covering. Anxiolytics decrease the number of marbles buried at non-sedative doses. Mice were individually placed in transparent plastic cages (33×21×18 cm) with 5 cm of sawdust on the floor 25 marbles grouped in the center of the cage. The cage was covered with an inverted plastic cage. Each test cage, together with the marbles, was impregnated with mouse odor before-hand by leaving 10 mice in the cage for 15 minutes. These mice then played no further role in the experiment. The number of marbles covered by sawdust (⅔ or more) was counted at the end of a 30-minute test. Twelve mice were studied per group. The test was performed blind (test substances versus vehicle). Clobazam (8 mg/kg i.p.), administered 40 minutes before the test, was used as reference substance. Data with the test substances were analyzed by comparing treated groups with vehicle control using Kruskall-Wallis test followed by Mann-Whitney U tests. Data with the reference substance were analyzed using Mann-Whitney U tests.

[5] = each test dose, single i.p., vs vehicle
[6] = 5 mg/kg i.p. once/day for 6 days, tested 30-60 min after last dose
[7] = 8 mg/kg i.p. 30 minutes before testing

T1 sequence (Q12879 23-1464, other chains not shown): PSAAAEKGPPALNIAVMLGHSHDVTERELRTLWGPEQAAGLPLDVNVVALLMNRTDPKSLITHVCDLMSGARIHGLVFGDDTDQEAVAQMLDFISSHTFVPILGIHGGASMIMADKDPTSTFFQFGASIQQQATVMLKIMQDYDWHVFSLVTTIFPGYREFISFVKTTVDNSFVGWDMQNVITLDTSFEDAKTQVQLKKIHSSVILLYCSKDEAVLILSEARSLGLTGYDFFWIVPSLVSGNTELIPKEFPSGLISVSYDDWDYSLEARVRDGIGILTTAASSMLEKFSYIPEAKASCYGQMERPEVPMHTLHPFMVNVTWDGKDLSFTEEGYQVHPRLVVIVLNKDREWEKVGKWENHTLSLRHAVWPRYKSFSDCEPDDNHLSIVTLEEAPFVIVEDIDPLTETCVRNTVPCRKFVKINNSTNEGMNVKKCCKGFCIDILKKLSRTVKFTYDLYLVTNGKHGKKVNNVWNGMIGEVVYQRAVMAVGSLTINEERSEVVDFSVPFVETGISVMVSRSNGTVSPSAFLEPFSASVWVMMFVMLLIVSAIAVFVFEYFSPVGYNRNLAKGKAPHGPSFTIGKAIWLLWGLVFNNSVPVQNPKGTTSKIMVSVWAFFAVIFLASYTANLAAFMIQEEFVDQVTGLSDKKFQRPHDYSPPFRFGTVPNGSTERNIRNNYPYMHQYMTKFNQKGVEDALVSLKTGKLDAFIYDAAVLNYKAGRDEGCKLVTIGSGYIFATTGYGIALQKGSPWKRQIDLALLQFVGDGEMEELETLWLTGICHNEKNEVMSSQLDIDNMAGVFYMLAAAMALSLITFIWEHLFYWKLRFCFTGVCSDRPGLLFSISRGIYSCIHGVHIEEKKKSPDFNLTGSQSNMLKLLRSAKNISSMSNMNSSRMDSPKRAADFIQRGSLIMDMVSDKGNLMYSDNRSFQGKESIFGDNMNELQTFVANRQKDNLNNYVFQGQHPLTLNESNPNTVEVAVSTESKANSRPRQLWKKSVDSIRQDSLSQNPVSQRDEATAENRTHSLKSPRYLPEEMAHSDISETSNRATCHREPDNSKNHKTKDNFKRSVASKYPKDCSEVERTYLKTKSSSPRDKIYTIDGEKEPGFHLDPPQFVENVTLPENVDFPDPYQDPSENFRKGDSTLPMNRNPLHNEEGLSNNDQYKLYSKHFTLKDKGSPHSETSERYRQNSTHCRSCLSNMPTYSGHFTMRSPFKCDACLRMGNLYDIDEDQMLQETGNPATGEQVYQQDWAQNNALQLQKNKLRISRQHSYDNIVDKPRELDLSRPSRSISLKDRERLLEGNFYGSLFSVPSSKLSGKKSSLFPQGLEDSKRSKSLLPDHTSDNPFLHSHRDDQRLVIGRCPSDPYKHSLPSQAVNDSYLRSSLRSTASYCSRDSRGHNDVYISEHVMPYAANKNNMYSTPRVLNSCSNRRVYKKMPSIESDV
T2 sequence (Q13224 27-1484, other chains not shown): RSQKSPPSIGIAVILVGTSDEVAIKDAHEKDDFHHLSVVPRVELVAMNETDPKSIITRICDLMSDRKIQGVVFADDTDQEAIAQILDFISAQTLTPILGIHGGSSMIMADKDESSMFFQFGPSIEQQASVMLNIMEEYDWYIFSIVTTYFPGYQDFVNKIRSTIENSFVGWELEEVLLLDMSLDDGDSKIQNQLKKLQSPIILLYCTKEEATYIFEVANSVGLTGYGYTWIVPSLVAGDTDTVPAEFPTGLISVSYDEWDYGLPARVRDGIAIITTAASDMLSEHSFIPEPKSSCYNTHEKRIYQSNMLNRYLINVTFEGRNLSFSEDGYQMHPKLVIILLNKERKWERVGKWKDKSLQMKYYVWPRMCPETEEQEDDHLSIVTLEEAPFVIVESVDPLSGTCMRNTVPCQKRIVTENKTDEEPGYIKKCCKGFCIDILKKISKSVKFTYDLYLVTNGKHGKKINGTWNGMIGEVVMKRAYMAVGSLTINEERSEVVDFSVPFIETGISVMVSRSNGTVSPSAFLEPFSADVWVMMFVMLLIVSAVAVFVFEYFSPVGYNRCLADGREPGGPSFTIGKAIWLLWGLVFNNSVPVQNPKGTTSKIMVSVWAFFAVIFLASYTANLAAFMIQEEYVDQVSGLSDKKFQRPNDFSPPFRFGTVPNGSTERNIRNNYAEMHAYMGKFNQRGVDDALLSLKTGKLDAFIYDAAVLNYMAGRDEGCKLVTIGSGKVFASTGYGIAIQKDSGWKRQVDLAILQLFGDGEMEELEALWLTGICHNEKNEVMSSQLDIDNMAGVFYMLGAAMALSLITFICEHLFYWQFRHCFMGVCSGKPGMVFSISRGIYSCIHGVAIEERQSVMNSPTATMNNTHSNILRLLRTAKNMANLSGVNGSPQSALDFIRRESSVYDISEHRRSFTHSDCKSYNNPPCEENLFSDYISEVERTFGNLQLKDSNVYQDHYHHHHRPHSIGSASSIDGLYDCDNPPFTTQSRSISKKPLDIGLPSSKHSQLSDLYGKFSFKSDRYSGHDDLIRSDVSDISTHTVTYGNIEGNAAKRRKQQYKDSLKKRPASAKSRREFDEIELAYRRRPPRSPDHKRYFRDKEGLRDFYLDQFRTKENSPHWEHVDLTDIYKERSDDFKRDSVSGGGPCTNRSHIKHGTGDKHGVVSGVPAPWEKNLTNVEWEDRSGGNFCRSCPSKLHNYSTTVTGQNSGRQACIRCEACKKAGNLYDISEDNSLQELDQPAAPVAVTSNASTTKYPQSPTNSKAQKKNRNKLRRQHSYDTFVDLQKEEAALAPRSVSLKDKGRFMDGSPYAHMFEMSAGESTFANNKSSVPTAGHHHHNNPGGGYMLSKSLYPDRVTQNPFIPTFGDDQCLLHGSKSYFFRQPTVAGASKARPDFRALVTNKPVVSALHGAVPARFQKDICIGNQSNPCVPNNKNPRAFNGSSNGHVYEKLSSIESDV
T3 sequence (Q12879 23-1464, other chains not shown): as the sequence (Q12879 23-1464, other chains not shown) above

Compound: C[C@@H](CN1CCC(Cc2ccccc2)CC1)[C@@H](O)c1ccc(O)cc1 [Ro25-6981]
- activity in the elevated plus maze test [1]: inactive
- effect in the marble burying test [2]: modest efficacy

Compound: Cc1ccc(COC(=O)N2CC[C@H](CNc3ncccn3)[C@H](F)C2)cc1 (racemic) [Compound C, (±)-cis-4-methylbenzyl 3-fluoro-4-[(pyrimidin-2-ylamino)methyl]piperidine-1-carboxylate]
- novelty phobia (number of touch bouts) (Sapap3 knock-out mice; [5]): significantly improved
- novelty phobia (number of touch bouts), dose dependence (Sapap3 knock-out mice): dose-dependently improved novelty phobia

Compound: Cc1ccc(COC(=O)N2CC[C@@H](CNc3ncccn3)[C@@H](F)C2)cc1 [(3R,4S)-4-methylbenzyl 3-fluoro-4-[(pyrimidin-2-ylamino)methyl]piperidine-1-carboxylate]
- pIC50 (human NR1/NR2A [3]): < 5.00
- pIC50 (human NR1/NR2B): 7.74

Compound: C[C@@H]([C@@H](O)c1ccc(O)cc1)N1CCC(O)(c2ccccc2)CC1 [Compound A, (+)-(1S,2S)-1-(4-hydroxyphenyl)-2-(4-hydroxy-4-phenylpiperidino)-1-propanol, reference compound]
- pIC50 (human NR1/NR2A [4]): ≤ 5.00
- novelty phobia (number of touch bouts) (Shank3 knock-out mice; [6]): significantly improved novelty phobia

Compound: CN1C(=O)CC(=O)N(c2ccccc2)c2cc(Cl)ccc21 [clobazam, reference compound]
- time spent in the open arms (wild-type mice; [7]): significantly different from that of vehicle
- number of marbles buried (wild type mice; [7]): significantly different from that of vehicle

Compound: FC(F)(F)c1ccc(C(F)(F)CN2CCC(Nc3ncnc4[nH]ncc34)CC2)cc1 [Compound B, N-(1-(2,2-difluoro-2-(4-trifluoromethyl)phenyl-ethyl)piperidin-4-yl)-1H-pyrazolo[3,4-d]pyrimidin-4-amine]
- novelty phobia (number of touch bouts) (Sapap3 knock-out mice; [5]): significantly improved
- novelty phobia (number of touch bouts), dose dependence (Sapap3 knock-out mice): dose-dependently improved novelty phobia
- pIC50 (human NR1/NR2A [3]): < 5.00
- novelty phobia (number of touch bouts) (Shank3 knock-out mice; [6]): significantly improved novelty phobia
- novelty phobia (number of touch bouts) (Shank3 knock-out mice; 1 and 5 mg/kg single i.p.): significantly improved novelty phobia
- novelty phobia (number of touch bouts), dose dependence (Shank3 knock-out mice; single i.p. administration 30-60 min before testing): dose-dependently improved novelty phobia

Compound: Cc1ccc(COC(=O)N2CC[C@H](CNc3ncccn3)[C@H](F)C2)cc1 [Compound D, (−)-(3S,4R)-cis-4-methylbenzyl 3-fluoro-4-[(pyrimidin-2-ylamino)methyl]-piperidine-1-carboxylate]
- novelty phobia (number of touch bouts) (Sapap3 knock-out mice; 1 mg/kg i.p. 20 minutes prior to testing): improved novelty phobia
- time spent in the open arms (wild-type mice; 3 and 10 mg/kg i.p. 20 minutes before the test, p<0.01/0.001): significantly different from that of vehicle
- time spent in the open arms, dose dependence (wild-type mice; single i.p. dose 20 minutes before the test): maximal efficacy approaching that of the benzodiazepine control compound clobazam; also recorded: dose-dependently increased the amount of time spent
- number of marbles buried (wild type mice; 1 mg/kg i.p. 20 minutes before the test): significantly different from that of vehicle
- number of marbles buried, dose dependence (wild type mice; single i.p. dose 20 minutes before 30-minute test session): dose-dependently reduced the number of marbles buried
- pIC50 (human NR1/NR2A [3]): < 5.00
- pIC50 (human NR1/NR2B): 7.96
